# Assays:
# [1] = system: PBMCs; test: Cell cycle analysis of PBMCs by flow cytometry; format: cell-based, Human
# Procedure: Flow cytometry studies were carried out on PHA/IL-2 induced PBMCs treated for 6 days with the various test compounds. Prior to flow cytometry the PBMCs were washed, counted and 1×10^6 cells resuspended in PBS and stained for CD4 or CD8 surface markers using anti-CD4.PE or CD8.PE (both from PharMingen) for 30 min at 4° C. The PBMC were then washed, fixed (Cytofix) and permeabilized (Cytoperm) followed by staining for apoptosis-related DNA damage. Initial experiments used the BrdU Flow Kit from PharMigen (2354KK). This kit with the appropriate software should have yielded percent apoptosis along with the number of cells in each phase of the cell cycle. However, we were not successful with this kit and subsequently used the data to look at only the distribution in the cell cycle of the PBMCs following drug treatment. We were successful in detecting apoptosis in PBMCs with the PharMingen APO-BRDU™ kit (6576KK). Using this kit, we were not able to co-stain for CD4 and CD8 due to the fluorescent tags used in the APO-BRDU™ kit. For both kits, manufacturers instructions were followed for staining and analysis of the samples. Following the appropriate staining protocol the cells were analyzed using a Becton Dickinson (Bedford, Mass.) FACSSort
# (§1) Experiments were conducted using flow cytometry to assess the effect of the IMG compounds and cannabidiol on induction of apoptosis. Briefly, compound-treated PBMCs were assayed for apoptosis using a BrdU methodology. Table 6 summarizes the effects of the IMG Compounds on cell cycle and cell viability by Trypan Blue Dye exclusion. Table 7 reduces the changes in the cell cycle to a ratio based upon the percent of cells in G2-G1. G2-G1 cells represent transition cells that are in either G2 or G1, that cannot be distinguished based upon DNA content by flow cytometry. […] This ratio cannot be used as a quantitative factor to measure fold-increases or decreases between population, but rather to access trends in the cell cycle.
# [2] = system: PBMCs; test: PBMC viability by Trypan Blue dye exclusion; format: cell-based, Human
# Source text: (§2) Human peripheral blood mononuclear cells from a minimum of 2 donors, that have been blasted with PHA and IL-2, were counted, viability determined by Trypan Blue dye exclusion and mixed in equal ratios. Pooled donors were used to minimize the variability observed between individual donors which results from quantitative and qualitative differences in HIV infection and overall response to the PHA and IL-2 of primary lymphocyte populations. The cells were resuspended at 1×10^6 cells/mL in RPMI 1640 without phenol red supplemented with 15% Fetal Bovine Serum (heat inactivated), 2 mM L-glutamine, 100 U/mL penicillin, 100 μg/mL streptomycin, 10 μg/Ln gentamycin and IL-2 (20 U/mL, R&D Systems, Minneapolis, Minn.). Fifty microliters of cells were then distributed to the inner 60 wells of a 96 well round bottom microtiter culture plate in a standard format developed by the Infectious Disease Research department of Southern Research Institute. Each plate contains cell control wells (cells only), virus control wells (cells plus virus), and experimental wells (drug plus cells plus virus). Alternatively, cells were cultured in T25 cm^2 or T75 cm^2 tissue culture flasks at a starting density of 1×10^6 cells per ml. Serially diluted compounds were added to the microtiter plate or tissue culture flask followed by the appropriate pre-titered strain of HIV-1. For virus replication inhibition experiments the HIV-1 strain RoJo was used. This is a low passage presumable subtype B pediatric isolate with a syncytium inducing (SI) phenotype in MT-2 cells isolated by Southern Research Institute personnel. All samples were assayed in triplicate where possible with an accompanying determination of compound toxicity. The final volume per well in the microtiter plates was 200 μL. The final volume in the tissue culture flask varied depending upon experimental design and flask size. Assays were incubated for 6 days in a humidified atmosphere at 37° C., 5% CO2, after which supernatants were collected, for analysis of RT activity and cell viability by MTS dye reduction. Culture were also examined microscopically, any abnormalities noted, and in the case of tissue culture flasks cell counts and viability determined by Trypan Blue Dye exclusion.
# as §1
# [3] = system: HIV-1 strain RoJo; test: PBMC time-of-addition assay (RT in cell-free supernatant at 6 days); format: cell-based; details: for increase in IC50 (loss in potency): 24 h pretreatment; for IC50: Human immunodeficiency virus 1, PBMC; for regain of potency (decrease in IC50): 4 h pretreatment
# Procedure: Peripheral blood monocular cells (PBMCs) were obtained from normal hepatitis and HIV-1 negative donors by ficoll hypaque gradient separation. The mononuclear cells were washed to remove residual separation media, counted, viability determined and resuspended in RPMI 1640 medium supplemented with 15 % FBS (heat inactivated), 2 mM L-glutamine, 100 U/mL penicillin, 100 μg/mL streptomycin, and 10 μg/mL gentamycin with 2 μg/mL phytohemagluttin (PHA) at 1×10^6 cells/mL. The cells were cultured for 48 to 72 h at 37° C., 5% CO2. Following incubation, cells were collected by centrifugation, washed and resuspended in RPMI 1640 supplemented with 15% FBS (heat inactivated), 2 mM L-glutamine, 100 U/mL penicillin, 100 μg/mL streptomycin, and 10 μg/mL gentamycin with 20 U/mL recombinant IL-2 (R & D Systems, Minneapolis, Minn.). IL-2 was included in the culture medium to maintain the cell division initiated by the PHA mitogenic stimulation, and promote optimal growing conditions for the PBMCs. The cultures were then maintained until use by ½ culture volume change with fresh IL-2 containing medium every 3 days.
# as §2
# Time-of-addition assays were performed with PBMCs in two ways. For both assays, PBMCs were isolated and cultured under the conditions as described above. Time-of-addition assays were carried out in either a tissue culture flask format (T-75 cm^2) or in microtiter wells. In both cases due to the lack of plastic adherence and heterogeneity of the PBMC population for susceptibility to infection, it was not possible to use complete removal of virus following a timed adsorption to synchronize the infection and limit the assay to a single round of infection. […]
# [4] = 4 h, −4 h pre (relative to infection)
# [5] = pre-treat 0 h prior to infection
# [6] = pre-treat 2 h prior to infection
# [7] = pre-treat 4 h prior to infection
# [8] = pre-treat 24 h prior to infection
structure (smiles),measurement,setting,value
"COc1cc(C(C)(C)CCCC(C)C)cc(OC)c1OC [IG-07, 1-(1,1,5Trimethylhexyl)-3,4,5-trimethoxybenzene]",% 7-AAD positive per cell cycle phase G0-G1,"[1]; 5 μM, HIV +",89%
same,% 7-AAD positive per cell cycle phase G2-G1,"[1]; 5 μM, HIV +",2%
same,% 7-AAD positive per cell cycle phase G2-M,"[1]; 5 μM, HIV +",10%
same,% of cells in cell cycle phase,"[1]; 5 μM, HIV +",0%
same,% 7-AAD positive per cell cycle phase G0-G1,"[1]; 5 μM, HIV −",89%
same,% 7-AAD positive per cell cycle phase G2-G1,"[1]; 5 μM, HIV −",2%
same,% 7-AAD positive per cell cycle phase G2-M,"[1]; 5 μM, HIV −",6.9%
same,% of cells in cell cycle phase,"[1]; 5 μM, HIV −",0%
same,% 7-AAD positive per cell cycle phase G0-G1,"[1]; 100 μM, HIV +",95%
same,% 7-AAD positive per cell cycle phase G2-G1,"[1]; 100 μM, HIV +",2%
same,% 7-AAD positive per cell cycle phase G2-M,"[1]; 100 μM, HIV +",3.1%
same,% of cells in cell cycle phase,"[1]; 100 μM, HIV +",1.7%
same,% 7-AAD positive per cell cycle phase G0-G1,"[1]; 100 μM, HIV −",94%
same,% 7-AAD positive per cell cycle phase G2-G1,"[1]; 100 μM, HIV −",2%
same,% 7-AAD positive per cell cycle phase G2-M,"[1]; 100 μM, HIV −",0.2%
same,% of cells in cell cycle phase,"[1]; 100 μM, HIV −",6%
same,% Viable Cells,"[2]; 5 μM, HIV +",94%
same,% Viable Cells,"[2]; 5 μM, HIV −",92%
same,% Viable Cells,"[2]; 100 μM, HIV +",55%
same,% Viable Cells,"[2]; 100 μM, HIV −",50%
same,increase in IC50 (loss in potency),[3],approximately 2 fold
same,IC50,[3]; [4],39.5 µM
same,IC50,"[3]; 6 h, 6 h post infection",46.1 µM
same,IC50,[3]; at infection,67 µM
same,IC50,[3]; [5],6.9 µM
same,IC50,[3]; [6],6.1 µM
same,IC50,[3]; [7],5.3 µM
same,IC50,[3]; [8],10.8 µM
"C=C(C)[C@@H]1CCC(C)=C[C@H]1c1c(O)cc(CCCCC)cc1O [Cannabidiol, reference compound]",% 7-AAD positive per cell cycle phase G0-G1,"[1]; 1 μM, HIV +",94%
same,% 7-AAD positive per cell cycle phase G2-G1,"[1]; 1 μM, HIV +",2%
same,% 7-AAD positive per cell cycle phase G2-M,"[1]; 1 μM, HIV +",5.7%
same,% of cells in cell cycle phase,"[1]; 1 μM, HIV +",0%
same,% 7-AAD positive per cell cycle phase G0-G1,"[1]; 1 μM, HIV −",91%
same,% 7-AAD positive per cell cycle phase G2-G1,"[1]; 1 μM, HIV −",2%
same,% 7-AAD positive per cell cycle phase G2-M,"[1]; 1 μM, HIV −",9.2%
same,% of cells in cell cycle phase,"[1]; 1 μM, HIV −",0%
same,% 7-AAD positive per cell cycle phase G0-G1,"[1]; 25 μM, HIV +",96%
same,% 7-AAD positive per cell cycle phase G2-G1,"[1]; 25 μM, HIV +",2%
same,% 7-AAD positive per cell cycle phase G2-M,"[1]; 25 μM, HIV +",0%
same,% of cells in cell cycle phase,"[1]; 25 μM, HIV +",4.2%
same,% 7-AAD positive per cell cycle phase G0-G1,"[1]; 25 μM, HIV −",96.4%
same,% 7-AAD positive per cell cycle phase G2-G1,"[1]; 25 μM, HIV −",2%
same,% 7-AAD positive per cell cycle phase G2-M,"[1]; 25 μM, HIV −",0.05%
same,% of cells in cell cycle phase,"[1]; 25 μM, HIV −",3.6%
same,% 7-AAD positive per cell cycle phase G0-G1,"[1]; 35 μM, HIV +",98%
same,% 7-AAD positive per cell cycle phase G2-G1,"[1]; 35 μM, HIV +",2%
same,% 7-AAD positive per cell cycle phase G2-M,"[1]; 35 μM, HIV +",0%
same,% of cells in cell cycle phase,"[1]; 35 μM, HIV +",2.6%
same,% 7-AAD positive per cell cycle phase G0-G1,"[1]; 35 μM, HIV −",95.5%
same,% 7-AAD positive per cell cycle phase G2-G1,"[1]; 35 μM, HIV −",2%
same,% 7-AAD positive per cell cycle phase G2-M,"[1]; 35 μM, HIV −",0%
same,% of cells in cell cycle phase,"[1]; 35 μM, HIV −",4.5%
same,% Viable Cells,"[2]; 1 μM, HIV +",94%
same,% Viable Cells,"[2]; 1 μM, HIV −",85%
same,% Viable Cells,"[2]; 25 μM, HIV +",55%
same,% Viable Cells,"[2]; 25 μM, HIV −",86%
same,% Viable Cells,"[2]; 35 μM, HIV +",61%
same,% Viable Cells,"[2]; 35 μM, HIV −",61%
same,loss of activity (potency),"[3]; 2 h pre-treatment, listed as cannabidiol",approximately 10 fold
same,regain of potency (decrease in IC50),[3],"activity at 2, regain 3.3-fold"
same,regain of potency (decrease in IC50),[3]; listed as cannabidiol,3.3 fold
same,increase in IC50 (loss in potency),[3],at 4 h then a 17-fold
same,increase in IC50 (loss in potency),[3]; listed as cannabidiol,17 fold
same,IC50,[3]; [4],12.1 µM
same,IC50,"[3]; 6 h, 6 h post infection",12.1 µM
same,IC50,[3]; at infection,13.8 µM
same,IC50,[3]; [5],0.58 µM
same,IC50,[3]; [6],5 µM
same,IC50,[3]; [7],1.5 µM
same,IC50,[3]; [8],10.5 µM

# — patent US20040242870A1, “Antiviral methods and compounds” (priority 2000, published 2004)
